{"source": "patent US6897228B2", "about": "“Pyridoxine and pyridoxal analogues: new uses” (Medicure International Inc., priority 2000, dated 2005)", "key": {"[1]": {"test_system": "male Wistar rats, LAD occlusion and reperfusion", "test": "Rat cardiac ischemia reperfusion model", "format": "in vivo", "method": "Seventy-nine male Wistar rats (200-300 g, Tuck, Rayleigh, Essex, U.K.) were anesthetized with thiopentone sodium (Intraval®, 120 mg/kg i.p.; Rhone-Merrieux, Essex, U.K.). The rats were tracheotomized, intubated and ventilated with a Harvard ventilator (70 strokes/min, tidal volume: 8-10 ml/kg, inspiratory oxygen concentration: 30%). Body temperature was maintained at 38±1° C. The right carotid artery was cannulated and connected to a pressure transducer (Spectramed, P23XL) to monitor mean arterial blood pressure (MAP) and heart rate (HR), which were continuously recorded on a 4-channel Grass 7D polygraph recorder (Grass, Mass., U.S.A.). The right jugular vein was cannulated for the administration of drugs. Subsequently, a lateral thoracotomy was performed and the heart was suspended in a temporary pericardial cradle. A snare occluder was placed around the left anterior descending coronary artery (LAD). After completion of the surgical procedure the animals were allowed to stabilize for 30 min before LAD ligation. The coronary artery was occluded at time 0 by tightening of the occluder. After 25 min of acute myocardial ischemia, the occluder was re-opened to allow the reperfusion for 2 h. Following the 2 h reperfusion period, the coronary artery was re-occluded and Evans Blue dye (1 ml of 2% w/v) was injected into the left ventricle, via the right carotid artery cannula, to distinguish between perfused and non-perfused area at risk (AR) sections of the heart. The Evans Blue solution stains the perfused myocardium, while the occluded vascular bed remains uncolored. The animals were killed with an overdose of anesthetic and the heart excised. It was sectioned into slices of 3-4 mm, the right ventricular wall was removed, and the AR (pink) was separated from the non-ischemic (blue) area. The AR was cut into small pieces and incubated with p-nitroblue tetrazolium (NBT, 0.5 mg/ml) for 40 min at 37° C. In the presence of intact dehydrogenase enzyme systems (viable myocardium), nitro-blue tetrazolium (NBT) forms a dark blue formazan, whilst areas of necrosis lack dehydrogenase activity and therefore fail to stain. Pieces were separated according to staining and weighed to determine the infarct size as a percentage of the weight of the AR.\nThe following experimental groups were studied: • (1) Sham-operation (no occlusion of the LAD) plus administration of saline (Sham-Saline, 1 ml/kg i.v. n=9). • (2) LAD-occlusion (25 min) and reperfusion (2 h) plus administration of saline (myocardial infarction (“MI”)-Saline; 1 ml/kg i.v. bolus, 5 min prior to LAD occlusion) (n=10). • (3) LAD-occlusion and reperfusion plus administration of XL (25 mg/kg i.v. bolus at 5 min prior to LAD occlusion) (n=10).\nAll data were expressed as mean±s.e.mean of n observations, where n represented the number of animals studied. Infarct size was analyzed by 1-factorial ANOVA, followed by a Bonferroni's post hoc test for multiple comparisons. Hemodynamic data were analyzed by 2-way ANOVA followed by a Bonferroni's test. A P-value of less than 0.05 was considered to be statistically significant (when compared to Ml-Saline)."}, "[2]": {"test_system": "platelets (platelet rich plasma)", "test": "Inhibition of platelet aggregation (aggregometer, platelet rich plasma)", "format": "cell-based", "conditions": "for Extent of aggregation as a percentage amplitude, 1 μg/mL collagen: agonist 1 μg/mL collagen; for Extent of aggregation as a percentage amplitude, 4 μM ADP: agonist 4 μM ADP; for Extent of aggregation as a percentage amplitude, 5 μg/mL collagen: agonist 5 μg/mL collagen; for Extent of aggregation as a percentage amplitude, 12 μM TRAP: agonist 12 μM TRAP", "method": "Platelet rich plasma (PRP) was obtained by drawing whole blood into sodium citrate tubes (3.2%) and centrifuging at 700 rpm for 10 minutes. Platelet poor plasma (PPP) was obtained by centrifuging the remainder of the sample ntil the platelets were removed (3200 rpm for 10 minutes). The PRP was adjusted to a count of 280×10^9/L using a mixture of PRP and PPP. The incubation mixture consisted of 200 μL of platelets and 25 μL of the appropriate compound (18 mM stock for a final concentration of 2 mM and 4.5 mM stock for a final concentration of 500 μM), rendering an approximate final platelet count in the incubation mixture of 250×10^9/L. After incubation (30 minutes at room temperature, the cuvettes were incubated for 3 minutes at 37° C., transferred to the mixing wells and after the baselines transmittances were measured in an aggregometer (Chrono-Log 4), 25 μL of agonist was added to give a final concentration of 4 μM ADP, 1 μg/mL collagen, 5 μg/mL collagen or 12 μM thrombin receptor activating peptide (TRAP). Final transmittances were then measured in the aggregometer (lower percent transmittance represents higher aggregation). […] Table 24-1 gives the results of the extent of aggregation for several compounds as percentage amplitude read directly from the aggregometer."}, "[3]": {"conditions": "25 mg/kg i.v. bolus t = −5 mins, Baseline"}, "[4]": {"conditions": "25 mg/kg i.v. bolus, Occlusion 15 mins"}, "[5]": {"conditions": "25 mg/kg i.v. bolus, Occlusion 25 mins"}, "[6]": {"conditions": "25 mg/kg i.v. bolus, Reperfusion 60 mins"}, "[7]": {"conditions": "25 mg/kg i.v. bolus, Reperfusion 120 mins"}}}
{"smiles": "Cc1ncc(CNc2ccc(-c3ccc(C(=N)N)cc3)cc2)c(CO)c1O", "note": "[Compound XL]", "values": [{"measurement": "HR (heart rate)", "setting": "[1]; [3]", "result": "443 ± 9", "unit": "beats per min"}, {"measurement": "MAP (mean arterial pressure)", "setting": "[1]; [3]", "result": "121 ± 7", "unit": "mmHg"}, {"measurement": "PRI (pressure rate index)", "setting": "[1]; [3]", "result": "54 ± 3", "unit": "mmHg/min · 10^−3"}, {"measurement": "infarct size (percentage of the area at risk)", "setting": "[1]; 25 mg/kg i.v. bolus, 5 minutes before regional ischemia, P<0.05, MI-Saline 48±3% of the AR", "result": "significant reduction"}, {"measurement": "HR (heart rate)", "setting": "[1]; [4]", "result": "435 ± 11", "unit": "beats per min"}, {"measurement": "MAP (mean arterial pressure)", "setting": "[1]; [4]", "result": "119 ± 6", "unit": "mmHg"}, {"measurement": "PRI (pressure rate index)", "setting": "[1]; [4]", "result": "52 ± 3", "unit": "mmHg/min · 10^−3"}, {"measurement": "HR (heart rate)", "setting": "[1]; [5]", "result": "460 ± 10", "unit": "beats per min"}, {"measurement": "MAP (mean arterial pressure)", "setting": "[1]; [5]", "result": "118 ± 6", "unit": "mmHg"}, {"measurement": "PRI (pressure rate index)", "setting": "[1]; [5]", "result": "55 ± 3", "unit": "mmHg/min · 10^−3"}, {"measurement": "HR (heart rate)", "setting": "[1]; [6]", "result": "412 ± 10", "unit": "beats per min"}, {"measurement": "MAP (mean arterial pressure)", "setting": "[1]; [6]", "result": "89 ± 8", "unit": "mmHg"}, {"measurement": "PRI (pressure rate index)", "setting": "[1]; [6]", "result": "36 ± 3", "unit": "mmHg/min · 10^−3"}, {"measurement": "HR (heart rate)", "setting": "[1]; [7]", "result": "414 ± 13", "unit": "beats per min"}, {"measurement": "MAP (mean arterial pressure)", "setting": "[1]; [7]", "result": "70 ± 7", "unit": "mmHg"}, {"measurement": "PRI (pressure rate index)", "setting": "[1]; [7]", "result": "29 ± 3", "unit": "mmHg/min · 10^−3"}, {"measurement": "fall in MAP compared with MI-rats treated with Saline", "setting": "[1]; 25 mg/kg i.v., P>0.05", "result": "similar"}, {"measurement": "fall in PRI compared with MI-rats treated with Saline", "setting": "[1]; 25 mg/kg i.v., P>0.05", "result": "similar"}, {"measurement": "effect on HR", "setting": "[1]; rats subjected to regional myocardial ischemia and reperfusion, P>0.05", "result": "no significant effect"}, {"measurement": "Extent of aggregation as a percentage amplitude, 1 μg/mL collagen", "setting": "[2]; compound 500 μM", "result": 4, "unit": "%"}, {"measurement": "Extent of aggregation as a percentage amplitude, 4 μM ADP", "setting": "[2]; compound 500 μM", "result": 9, "unit": "%"}, {"measurement": "Extent of aggregation as a percentage amplitude, 5 μg/mL collagen", "setting": "[2]; compound 500 μM", "result": 52, "unit": "%"}, {"measurement": "Extent of aggregation as a percentage amplitude, 12 μM TRAP", "setting": "[2]; compound 500 μM", "result": 3, "unit": "%"}, {"measurement": "Extent of aggregation as a percentage amplitude, 1 μg/mL collagen", "setting": "[2]; compound 2 mM", "result": 4, "unit": "%"}, {"measurement": "Extent of aggregation as a percentage amplitude, 4 μM ADP", "setting": "[2]; compound 2 mM", "result": 4, "unit": "%"}, {"measurement": "Extent of aggregation as a percentage amplitude, 5 μg/mL collagen", "setting": "[2]; compound 2 mM", "result": 5, "unit": "%"}, {"measurement": "Extent of aggregation as a percentage amplitude, 12 μM TRAP", "setting": "[2]; compound 2 mM", "result": 4, "unit": "%"}]}
